# Data taken from US11980596B2 (priority 2017, dated 2024).
# “And” between values parts separate entries of the source, which are not always exact repeats. Identical values can stand only once. “Also recorded” adds a separate entry of the source. Counter-ions that a name gives are not always drawn. Marks after values point to notes of the source that are not given here.
# Legend:
# [1] = system: female Sprague-Dawley rats; assay: Single dose neurotoxicity study: mortality, clinical observations, body weight; type: in vivo, rat; conditions: for Abnormal respiration, incidence / Abnormal respiration: audible respiration, incidence / Abnormal respiration: bradypnoea, incidence / Ataxia, incidence / Catalepsy, incidence / Chromodacryorrhea, incidence / Decreased general activity, incidence / Decubitus, incidence / Increased general activity, incidence / Narrowed palpebral fissure, incidence / Piloerection, incidence / Salivation (out of normal), incidence: single dose
# Description: The injection volume was 5 mL/kg.
# (§1) Body weight and body weight gain were measured daily.
# [2] = system: female Sprague-Dawley rats; assay: 14-day repeated dose neurotoxicity study: mortality, clinical observations, body weight; type: in vivo, rat; conditions: 14 days
# Description: as §1
# [3] = Solubility of esketamine HCl
# Description: The clinical investigational product is an aqueous solution of the drug substance, esketamine hydrochloride (HCl). This formulation is administered intranasally to patients using a dual nasal spray device, which delivers one spray into each nostril. […] The formulation was stored at 37° C. for stability reasons until dosing.
# [4] = system: posterior cingulate gyrus (PCG) and retrosplenial cortex (RSC); assay: Single dose neurotoxicity study: brain histopathology (neuronal necrosis); conditions: single dose of 72 mg; 48 or 96 hours; hydrochloride
# Description: In order to prepare for brain histopathology examination, all main study animals were perfused at necropsy. Prior to the perfusion, rats were anesthetized with isoflurane. After injection of 0.1 ml heparin, the blood of the rat was flushed out with a physiological saline solution by intraarterial insertion of a needle in the abdominal aorta. Thereafter the rat was perfused with glutaraldehyde 3% in potassium phosphate 0.09M and 1.4% sucrose.
# The vehicle control, positive control, and esketamine HCl-dosed animals were sacrificed at either 48 hours (i.e., the first 12 or 15 rats per group) or 96 hours after the dose administration time (i.e., the last 12 or 15 rats per group). The brain tissue of the vehicle control-, positive control- and esketamine HCl-treated rats were processed at the same time and handled in the same way in batches of 4 or 5 animals per group.
# Brain tissue was sampled and processed routinely. The trimmed and embedded tissue was sectioned and stained with hematoxylin-eosin (HE). Histoprocessing and staining were carried out in three batches of 4 animals per group (each batch thus containing 4 animals from vehicle control-, positive control- and the three esketamine HCl-treated groups). In the single dose study duplicate brain sections were stained with Fluoro-Jade (FJ).
# All tissues showing gross abnormalities were examined macroscopically. […]
# [5] = system: posterior cingulate gyrus (PCG) and retrosplenial cortex (RSC); assay: 14-day repeated dose neurotoxicity study: brain histopathology (neuronal necrosis); conditions: up to 54 mg/day; 48 hours after the last instillation; hydrochloride
# Description: The brain tissue of the vehicle control-, positive control- and esketamine HCl-treated rats were processed at the same time and handled in the same way in batches of 4 animals per group.
# Brain tissue was sampled and processed routinely. The trimmed and embedded tissue was sectioned and stained with hematoxylin-eosin (HE). Histoprocessing and staining were carried out in three batches of 4 animals per group (each batch thus containing 4 animals from vehicle control-, positive control- and the three esketamine HCl-treated groups).
# All tissues showing gross abnormalities were examined macroscopically. Histopathological examination was performed on 7 levels of brain tissue according to Bolon (2013. Toxicol. Pathol. 41(7), 1028-1048) from the vehicle control-, positive control-, and high dose esketamine HCl-treated groups in the single dose study, and in all groups in the repeated dose study.
# The microscopic finding of neuronal necrosis in the PCG/RSC of the brain was graded unilaterally according to the number of necrotic neurons observed over the total length of the PCG/RSC structure visible in the tissue section (usually around 3-5 mm) utilizing the following criteria:
# MDD/TRD subjects = conditions: 52-week safety study in MDD/TRD subjects (Berman et al., 2011); cited from earlier work
# [6] = Embryo-fetal toxicity, intranasal racemic ketamine, pregnant rats; type: in vivo, rat; conditions: female, rat, in vivo, inhaled or intranasal; intranasal; period of organogenesis
# Description: (§2) Racemic ketamine was administered intranasally to pregnant rats during the period of organogenesis at doses of 15, 50, and 150 mg/kg/day. The No Observed Adverse Effect level (NOAEL) for embryo-fetal toxicity in rats was the highest dose of 150 mg/kg/day. […] In pregnant rabbits, racemic ketamine was administered intranasally from gestational day 6 to 18 at doses of 10, 30, and 100 mg/kg/day. The high dose was lowered from 100 to 50 mg/kg after 5 days of dosing due to excessive mortality in the pregnant rabbits.
# pregnant rats = assay: as above; type: in vivo, rat; conditions: estimating 50% of the exposure to be from esketamine
# Description: as §2
# pregnant rabbits = assay: Embryo-fetal reproduction study, intranasal ketamine, pregnant rabbits; type: in vivo, rabbit
# Description: as §2
# bone marrow = assay: In vivo bone marrow micronucleus test; parameters: species or system mice; conditions: intraperitoneally-injected
# [7] = Single-dose neuronal toxicity study, subcutaneous racemic ketamine (label); type: in vivo, rat; conditions: rat, in vivo, sc; single subcutaneous dose; read-out: NOAEL for vacuolation
# Description: (§3) In a single-dose neuronal toxicity study in adult rats, subcutaneously administered racemic ketamine caused neuronal vacuolation in layer I of the retrosplenial cortex of the brain without neuronal necrosis at a dose of 60 mg/kg. The NOAEL for vacuolation in this study was 15 mg/kg. […] The relevance of these findings to humans is unknown.
# adult rats = assay: as above; type: in vivo, rat
# Description: as §3
# Ames test = conditions: with or without metabolic activation
# [8] = system: adult female Sprague Dawley rats; conditions: 3 hours after a single intraperitoneal injection (Jevtovic-Todorovic 2000); cited from earlier work
# mouse lymphoma = assay: In vitro mouse lymphoma test; conditions: in the presence of metabolic activation
# [9] = Pharmacokinetics of intranasal esketamine in healthy subjects (Example 9)
# Description: Blood samples (4 mL each) for determination of esketamine and noresketamine plasma concentrations were collected into the appropriate collection tube (e.g., Vacutainer®) at timepoints 0.00, 0.12, 0.20, 0.37, 0.53, 0.67, 0.83, 1.00, 1.25, 1.50, 2.00, 3.00, 4.00, 6.00, 9.00, 12.00, 18.00, and 24.00 h. The total amount of blood to be drawn for clinical laboratory tests and PK evaluations is approximately 327 mL.
# Plasma samples were analyzed for esketamine and noresketamine concentrations using the validated, specific and sensitive liquid chromatography coupled to tandem mass spectrometry (LC-MS/MS) achiral method of Example 8.
# Serial PK blood samples (4 mL each) were collected for a 24-hour period from each subject (Periods 1, 2, and 3). […] Statistical Methods 1.6.4.1. Sample Size
# The following key parameters of esketamine and noresketamine in plasma were calculated using noncompartmental methods and actual sampling times: Cmax, tmax, AUClast, AUC∞, t1/2,λ, and λz.
# glutamate NMDA receptor = assay: Affinity for the NMDA receptor in vitro; type: binding
# [10] = Clinical pharmacokinetics of esketamine (label)
# [11] = estimating 50% of the exposure to be from esketamine
# [12] = noresketamine in plasma after esketamine 28 mg intranasal (A), n = 13
# [13] = noresketamine in plasma after esketamine 56 mg intranasal (B), n = 13
# [14] = noresketamine in plasma after esketamine 56 mg intranasal (B), n = 14
# [15] = noresketamine in plasma after esketamine 84 mg intranasal (C), n = 12
# [16] = noresketamine in plasma after esketamine 84 mg intranasal (C), n = 13
compound,measurement,setting,value
"CN[C@]1(c2ccccc2Cl)CCCCC1=O [esketamine HCl, (S)-2-(2-chlorophenyl)-2-(methylamino)cyclohexanone hydrochloride]","Abnormal respiration, incidence",[1]; 36 mg intranasal,22/24 ***
same,"Abnormal respiration: audible respiration, incidence",[1]; 36 mg intranasal,10/24 ***
same,"Abnormal respiration: bradypnoea, incidence",[1]; 36 mg intranasal,22/24 ***
same,"Ataxia, incidence",[1]; 36 mg intranasal,24/24 ***
same,"Catalepsy, incidence",[1]; 36 mg intranasal,20/24 ***
same,"Chromodacryorrhea, incidence",[1]; 36 mg intranasal,0/24
same,"Decreased general activity, incidence",[1]; 36 mg intranasal,23/24 ***
same,"Decubitus, incidence",[1]; 36 mg intranasal,23/24 ***
same,"Increased general activity, incidence",[1]; 36 mg intranasal,24/24 ***
same,"Narrowed palpebral fissure, incidence",[1]; 36 mg intranasal,7/24**
same,"Piloerection, incidence",[1]; 36 mg intranasal,0/24
same,"Salivation (out of normal), incidence",[1]; 36 mg intranasal,23/24 ***
same,"Duration of severely decreased activity with decubitus, bradypnea, ptosis and catalepsy (anesthesia)","[1]; 36 mg, after the last instillation",15 to 30 min
same,"Abnormal respiration, incidence",[1]; 54 mg intranasal,22/24 ***
same,"Abnormal respiration: audible respiration, incidence",[1]; 54 mg intranasal,3/24
same,"Abnormal respiration: bradypnoea, incidence",[1]; 54 mg intranasal,21/24 ***
same,"Ataxia, incidence",[1]; 54 mg intranasal,24/24 ***
same,"Catalepsy, incidence",[1]; 54 mg intranasal,23/24 ***
same,"Chromodacryorrhea, incidence",[1]; 54 mg intranasal,0/24
same,"Decreased general activity, incidence",[1]; 54 mg intranasal,23/24 ***
same,"Decubitus, incidence",[1]; 54 mg intranasal,23/24 ***
same,"Increased general activity, incidence",[1]; 54 mg intranasal,24/24 ***
same,"Narrowed palpebral fissure, incidence",[1]; 54 mg intranasal,10/24 ***
same,"Piloerection, incidence",[1]; 54 mg intranasal,0/24
same,"Salivation (out of normal), incidence",[1]; 54 mg intranasal,24/24 ***
same,Duration of ataxia after the decrease in activity had subsided,"[1]; 54 mg, hydrochloride",1.5 to 3 h and 1 to 3 h
same,Duration of ataxia after the decrease in activity had subsided,[1]; 72 mg,≥ 3 h
same,"Abnormal respiration, incidence",[1]; 72 mg intranasal,30/30 ***
same,"Abnormal respiration: audible respiration, incidence",[1]; 72 mg intranasal,2/30
same,"Abnormal respiration: bradypnoea, incidence",[1]; 72 mg intranasal,30/30 ***
same,"Catalepsy, incidence",[1]; 72 mg intranasal,30/30 ***
same,"Chromodacryorrhea, incidence",[1]; 72 mg intranasal,0/30
same,"Decreased general activity, incidence",[1]; 72 mg intranasal,30/30 ***
same,"Decubitus, incidence",[1]; 72 mg intranasal,30/30 ***
same,"Increased general activity, incidence",[1]; 72 mg intranasal,29/30 ***
same,"Narrowed palpebral fissure, incidence",[1]; 72 mg intranasal,22/30 ***
same,"Piloerection, incidence",[1]; 72 mg intranasal,0/30
same,"Salivation (out of normal), incidence",[1]; 72 mg intranasal,29/30 ***
same,"Abnormal respiration, incidence",[2]; 18 mg/day intranasal,2/12
same,"Abnormal respiration: audible respiration, incidence",[2]; 18 mg/day intranasal,2/12
same,"Abnormal respiration: bradypnoea, incidence",[2]; 18 mg/day intranasal,0/12
same,"Ataxia, incidence",[2]; 18 mg/day intranasal,12/12***
same,"Chromodacryorrhea, incidence",[2]; 18 mg/day intranasal,0/12
same,"Decreased general activity, incidence",[2]; 18 mg/day intranasal,5/12
same,"Decubitus, incidence",[2]; 18 mg/day intranasal,0/12
same,"Increased general activity, incidence",[2]; 18 mg/day intranasal,12/12***
same,"Salivation (out of normal), incidence",[2]; 18 mg/day intranasal,12/12***
same,"Abnormal respiration, incidence",[2]; 36 mg/day intranasal,11/12***
same,"Abnormal respiration: audible respiration, incidence",[2]; 36 mg/day intranasal,6/12**
same,"Abnormal respiration: bradypnoea, incidence",[2]; 36 mg/day intranasal,11/12***
same,"Ataxia, incidence",[2]; 36 mg/day intranasal,12/12***
same,"Chromodacryorrhea, incidence",[2]; 36 mg/day intranasal,0/12
same,"Decreased general activity, incidence",[2]; 36 mg/day intranasal,12/12***
same,"Decubitus, incidence",[2]; 36 mg/day intranasal,2/12
same,"Increased general activity, incidence",[2]; 36 mg/day intranasal,12/12***
same,"Salivation (out of normal), incidence",[2]; 36 mg/day intranasal,12/12***
same,"Abnormal respiration, incidence",[2]; 54 mg/day intranasal,12/12***
same,"Abnormal respiration: audible respiration, incidence",[2]; 54 mg/day intranasal,6/12**
same,"Abnormal respiration: bradypnoea, incidence",[2]; 54 mg/day intranasal,12/12***
same,"Ataxia, incidence",[2]; 54 mg/day intranasal,12/12***
same,"Chromodacryorrhea, incidence",[2]; 54 mg/day intranasal,0/12
same,"Decreased general activity, incidence",[2]; 54 mg/day intranasal,12/12***
same,"Decubitus, incidence",[2]; 54 mg/day intranasal,8/12***
same,"Increased general activity, incidence",[2]; 54 mg/day intranasal,12/12***
same,"Salivation (out of normal), incidence",[2]; 54 mg/day intranasal,12/12***
same,"Maximum solubility, as base","[3]; room temperature, pH 4.5, factor 1.15",180 mg esketamine base/mL
same,Solubility,"[3]; water, methanol, ethanol","freely soluble in water and in methanol, and soluble in ethanol"
same,Histopathological lesions in the brain,[4],absent; also recorded: no neuropathological lesions
same,Histopathological lesions in the brain,[5],No histopathological lesions
OCCOCCN1CCN(C2=Nc3ccccc3Sc3ccccc32)CC1 [quetiapine],Discontinuation rate due to adverse events,MDD/TRD subjects,23.7%
CNC1(c2ccccc2Cl)CCCCC1=O (racemic) [ketamine],NOAEL,[6],150 mg/kg/day
same,"Esketamine AUC at the NOAEL, multiple of AUC at the MRHD of 84 mg/day",pregnant rats,12 times
same,"Esketamine exposure (AUC) at the NOAEL for skeletal malformations, multiple of exposure at MRHD of 84 mg/day",pregnant rabbits,0.3 times
same,Genotoxicity,bone marrow,did not show genotoxic properties
same,NOAEL,[7],15 mg/kg
same,"NOAEL for neuronal necrosis, multiple of clinical exposure at the MRHD, AUC",adult rats; [11],10 times
same,"NOAEL for neuronal necrosis, multiple of clinical exposure at the MRHD, Cmax",adult rats; [11],16 times
same,"NOAEL for neuronal vacuolation, multiple of clinical exposure at the MRHD, AUC",adult rats; [11],1.6 times
same,"NOAEL for neuronal vacuolation, multiple of clinical exposure at the MRHD, Cmax",adult rats; [11],4.5 times
same,Dose causing neuronal vacuolation in layer I of the retrosplenial cortex without neuronal necrosis,adult rats; single subcutaneous dose,60 mg/kg
same,Mutagenicity,Ames test,not mutagenic
same,ED50-value for the induction of neuronal vacuolation in the PCG/RSC,[8],47.5 mg/kg body weight
same,Mutagenicity,mouse lymphoma,positive
N[C@]1(c2ccccc2Cl)CCCCC1=O [noresketamine],AUC (AUClast and AUC∞) variability,[9]; noresketamine,17.0% to 21.3
same,Between-subject variability for Cmax,[9]; noresketamine,25.8% to 33.7
same,"AUClast, mean",[9]; [12],454 ng·h/mL
same,"AUC∞, mean",[9]; [12],508 ng·h/mL
same,"Cmax, mean",[9]; [12],92.8 ng/mL
same,"t1/2, mean",[9]; [12],7.74 h
same,"tmax, median",[9]; [12],1.25 h
same,"AUC∞, mean",[9]; [13],924^c h * ng/mL
same,"t1/2, mean",[9]; [13],7.71^c h
same,"AUClast, mean",[9]; [14],851 ng·h/mL
same,"Cmax, mean",[9]; [14],154 ng/mL
same,"tmax, median",[9]; [14],1.50 h
same,"AUC∞, mean",[9]; [15],1392^b h * ng/mL
same,"t1/2, mean",[9]; [15],7.48^b h
same,"AUClast, mean",[9]; [16],1287 ng·h/mL
same,"Cmax, mean",[9]; [16],241 ng/mL
same,"tmax, median",[9]; [16],1.50 h
same,"Metabolite/Parent Ratio, AUC∞","[9]; noresketamine/esketamine, esketamine 28 mg intranasal (A), n = 12",3.80^b
same,Activity at the NMDA receptor relative to esketamine,glutamate NMDA receptor,less affinity
same,Inhibition of CYP3A4,CYPs and UGTs,weak reversible inhibition
same,"Brain-to-plasma ratio, times lower than that of esketamine","[10]; human, in vivo",4- to 6 times
same,Mean terminal t1/2,[10]; noresketamine in plasma,approximately 8 hours
(+)MK-801 maleate [reference compound],Mortality,"[1]; single subcutaneous dose 1 mg/kg, single dose or repeated dose study",No mortality
